Assay results reported in patent EP0074929A1, “Polycyclic polyazaheterocycles, process for their preparation and pharmaceutical preparations containing them” (CIBA-GEIGY AG, priority 1981, dated 1983).
Structures can show the parent of a compound that is named as a salt. Where two headings read alike, the source gives them in different places.

Legend:
[1] = test system: isolierten Meerschweinchenvorhof; test: Isolated guinea pig atrium, inotropic and chronotropic effect; design: species or system Meerschweinchen
Sozialkonflikt-Test = test: Social conflict test in the rat; assay type: in vivo, Ratte; settings: po, peroral, lowest dose with anxiolytic effect, read-out: anxiolytische Wirkung nach peroraler Verabreichung von Dosen ab
Procedure: (§1) Die Verbindungen der allgemeinen Formel I und ihre Säureadditionssalze besitzen wertvolle psychopharmakologische Eigenschaften. Insbesondere wirken sie antagonistisch gegenüber der durch Reserpin induzierten Hypothermie, z.B. bei intraperitonealer oder peroraler Applikation an der Ratte, [vgl. Benz und Waser, Arzneimittelforsch. 21 (5) 654 (1971)] im Dosenbereich von 10 bis 100 mg/kg, und gegenüber der durch Tetrabenazin induzierten Ptosis bei intraperitonealer oder peroraler Applikation an der Ratte [vgl. Rubin et al., J. Pharmacol. exptl. Ther. 120, 125 (1957)] im Dosenbereich von 3 bis 100 mg/kg. Beispielsweise beträgt die ED50 von 4,5-Dihydro-2-[(dimethylamino)-methyl]-5-phenyl-1,2,4-triazolo[1,5-a]chinoxalin-hydrochlorid im zweitgenannten Test 3-10 mg/kg per os und 10 mg/kg i.p.. Im Sozialkonflikt-Test an der Ratte zeigen die Verbindungen der allgemeinen Formel I, wie die vorgenannte, anxiolytische Wirkung nach peroraler Verabreichung von Dosen ab 1 mg/kg. […] Die Toxizität der Verbindungen der allgemeinen Formel I ist im Vergleich zu den erwünschten pharmakologischen Wirkungen niedrig. Diese Eigenschaften kennzeichnen die Verbindungen der allgemeinen Formel I als Antidepressiva und Anxiolytica, die zur Behandlung von Depressionen Verwendung finden können.

[2] = test system: durch Tetrabenazin induzierten Ptosis; test: Antagonism of tetrabenazine-induced ptosis in the rat (Rubin et al.); assay type: in vivo, Ratte
Procedure: as §1

[3] = test system: isolierten Meerschweinchenvorhof; settings: known antidepressants, stated as contrast; cited from earlier work

Compound | chronotrope Wirkung [1] | inotrope Wirkung [1] | minimal effective dose (Sozialkonflikt-Test) [mg/kg] | ED50 ([2]; ip) [mg/kg] | ED50 ([2]; po, per os) [mg/kg] | chronotrope Wirkung [3] | inotrope Wirkung [3]
CN(C)Cc1nc2n(n1)-c1ccccc1N(c1ccccc1)C2 [4,5-Dihydro-2-[(dimethylamino)-methyl]-5-phenyl-1,2,4-triazolo[1,5-a]chinoxalin-hydrochlorid] | schwach negativ chronotrope | schwach positiv inotrope | ≥ 1 | 10 | 3 to 10 | – | –
CN(C)CCCN1c2ccccc2CCc2ccccc21 [Imipramin] | – | – | – | – | – | positiv chronotropen | eher negativ inotropen
